From ChEMBL document CHEMBL2331311, “Photoprotection of DNA (in vitro) by acyclothymidine dinucleosides” (Bioorg Med Chem Lett, 2013)
Calls of active or inactive are those of the source. The calls are words filed in the database; no cut-off is given here.

Tests used:
[1] = Cytotoxicity against mouse Cloudman S91 cells assessed as cell viability after 72 hrs by MTT assay; type: cell-based; settings: S91, 72 h
[2] = Photoprotection against UV light-induced Escherichia coli pEGFP-C1 DNA damage at 10 mM treated in cream formulation measured for 2 hrs by agarose gel electrophoresis; type: functional
[3] = Photoprotection against UV light-induced Escherichia coli pEGFP-C1 DNA damage at 10 mM treated in 1N NaOH solution measured for 2 hrs by agarose gel electrophoresis; type: functional
Vero = test: Cytotoxicity against african green monkey Vero cells assessed as cell viability after 72 hrs by MTT assay; type: cell-based; settings: Chlorocebus sabaeus
[4] = Cytotoxicity against human fibroblasts assessed as cell viability after 72 hrs by MTT assay; type: cell-based; settings: Fibroblast
RPMI-8226 = test: Photoprotection against UV light-induced DNA damage in human RPMI8226 cells at 10 mM treated in cream formulation measured for 3 hrs by agarose gel electrophoresis; type: functional, cell-based
MCF-10A = test: Cytotoxicity against human MCF10A cells assessed as cell viability after 72 hrs by MTT assay; type: cell-based

For `Cc1cn(CCCn2cc(C)c(=O)[nH]c2=O)c(=O)[nH]c1=O`, the EC50 [1] was over 100 µM, the Activity [2] was “Active” and the Activity [3] was “Active”. For the same compound, the EC50 (Vero) was over 100 µM, the EC50 [4] was over 100 µM and the Activity (RPMI-8226) was “Active”. It also gave an EC50 (MCF-10A) of over 100 µM.
